Data published in the NIST ThermoML archive (doi:10.1021/je300852v).

Assay: mean ionic activity coefficient (dimensionless); mn = molality of the nth substance listed, in mol/kg
Details: 298.15 K, 101 kPa, Liquid, 2 term dubye huckel

[Ca+2].[Cl-].[Cl-] [calcium chloride] + O
Details	mean ionic activity coefficient
m1 = 0.01	0.728
m1 = 0.02	0.664
m1 = 0.05	0.576
m1 = 0.1	0.517
m1 = 0.2	0.47
m1 = 0.3	0.453
m1 = 0.4	0.448
m1 = 0.5	0.449
m1 = 0.6	0.454
m1 = 0.7	0.462
m1 = 0.8	0.473
m1 = 0.9	0.487
m1 = 1	0.502
m1 = 1.2	0.54
m1 = 1.4	0.586
m1 = 1.6	0.643
m1 = 1.8	0.71
m1 = 2	0.79
m1 = 2.5	1.064
m1 = 3	1.49
